Columns and labels:
[1] = test system: fibroblasts (PHF) co-cultured with tumor cells, thyroid carcinoma (reference A-427); test: Marker expression (IHC) in PHF co-cultured with thyroid carcinoma tumor cells; format: cell-based, human; conditions: co-culture with thyroid carcinoma cells; SP 1 μM; 48 h;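 further: grown in fresh plasma from a healthy human donor, read-out is percent of fibroblasts positive for each marker, compared with fibroblasts cultured alone, run in six replicates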
Protocol: (§1) All cultures were maintained 48 hours, following which the same cells were included in paraffin blocks for subsequent analysis of the expression of different markers by immunohistochemistry (see Example 1). […] All experiments were carried out sixfold. Analyzed markers in fibroblast cells (stromal cells) were: TGF-α, TGF-β1, TGF-β2, TGF-β3, SPARC, MMP-3, MMP-7, MMP-9, MMP-11, MMP-13 and MMP-14.

[2] = test system: fibroblasts (PHF) co-cultured with tumor cells, thyroid carcinoma; test: as above; format: cell-based, human; conditions: co-culture with thyroid carcinoma cells; SP 1 μM; 48 h
Protocol: as §1

[3] = test system: fibroblasts (PHF) co-cultured with human melanoma tumor cells (MEL-HO1); test: Marker expression (IHC) in PHF co-cultured with MEL-HO1 tumor cells; format: cell-based; conditions: PHF co-cultured with MEL-HO1 + SP;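 further: values are the percentage of fibroblasts positive for each marker, with cultures grown in fresh healthy-donor blood plasma and each experiment run six times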
Protocol: as §1

[4] = test system: fibroblasts (PHF) co-cultured with tumor cells of human colon adenocarcinoma (SW-403); test: Marker expression (IHC) in PHF co-cultured with SW-403 tumor cells; format: cell-based; conditions: co-culture with SW-403; SP 1 μM; 48 h
[5] = test system: fibroblast cells in co-culture with cells isolated from primary human tumors; test: Marker expression (IHC) in fibroblasts co-cultured with primary human tumor cells (colon, pancreatic, lung carcinoma, glioma, multiple myeloma); format: cell-based
Protocol: To check that the interaction of the human primary tumor cells with stromal cells, [human fibroblasts,] stimulates the secretion of substances of importance for survival and tumor progression, co-cultures were performed using stromal cells with human fibroblast-tumor cells obtained directly from primary human tumors.
On this occasion, in order to identify, using immunohistochemical techniques, the secretion of substances of importance for the survival and progression of tumors, the following antibodies were used: TGF-α (SAB4502953), TGF-β1 (SAB4502954), TGF-β2 (SAB4502956), TGF-β3 (SAB4502957), SPARC (HPA002989), MMP-3 (HPA007875), MMP-7 (SAB4501894), MMP-9 (SAB4501896), MMP-11 (SAB4501898) MMP-13 (SAB4501900) and MMP-14 (SAB4501901) using specific antibodies against them. All antibodies used were rabbit polyclonal antibodies obtained from Sigma-Aldrich and were used at a concentration of 1/1000 to achieve these immunohistochemical studies. All experiments were carried out sixfold.

[6] = test system: fibroblasts (PHF) co-cultured with tumor cells of human cervix carcinoma (KB); test: Marker expression (IHC) in PHF co-cultured with KB tumor cells; format: cell-based; conditions: co-culture with KB; SP 1 μM; 48 h;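 further: percentage of PHF fibroblasts showing expression of each marker, cultured in fresh blood plasma from a healthy human donor, six replicates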
Protocol: as §1

[7] = test system: fibroblasts (PHF) co-cultured with tumor cells of human gastric adenocarcinoma (23132/87); test: Marker expression (IHC) in PHF co-cultured with 23132/87 tumor cells; format: cell-based; conditions: co-culture with 23132/87; SP 1 μM; 48 h;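 further: cultures grown in fresh plasma from a healthy human donor, values give the percentage of PHF fibroblasts positive for the marker, each experiment run in six replicates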
Protocol: All cultures were maintained 48 hours, following which the same cells were included in paraffin blocks for subsequent analysis of the expression of different markers by immunohistochemistry (see Example 1). The primary antibodies used to perform immunohistochemical assays and their concentration are detailed in Example 2. All experiments were carried out sixfold. Analyzed markers in fibroblast cells (stromal cells) were: TGF-α, TGF-β1, TGF-β2, TGF-β3, SPARC, MMP-3, MMP-7, MMP-9, MMP-11, MMP-13 and MMP-14.

[8] = Primary tumor cells (colon carcinoma) co-cultured + fibroblast + SP (1 μM)
[9] = co-culture with cells isolated from glioma, SP 1 μM
[10] = co-culture with cells isolated from lung cancer, SP 1 μM
[11] = co-culture with cells isolated from multiple myeloma, SP 1 μM
[12] = co-culture with cells isolated from pancreatic carcinoma, SP 1 μM

## CSCC[C@H](NC(=O)[C@H](CC(C)C)NC(=O)CNC(=O)[C@H](Cc1ccccc1)NC(=O)[C@H](Cc1ccccc1)NC(=O)[C@H](CCC(N)=O)NC(=O)[C@H](CCC(N)=O)NC(=O)[C@@H]1CCCN1C(=O)[C@H](CCCCN)NC(=O)[C@@H]1CCCN1C(=O)[C@@H](N)CCCNC(=N)N)C(N)=O [SP]
[1]
  PHF cells expressing MMP-3: 43.1 ± 1.7%
  PHF cells expressing MMP-7: 56.4 ± 3.8%
  PHF cells expressing MMP-9: 51.4 ± 3.4%
  PHF cells expressing MMP-13: 4.25 ± 3.6%
  PHF cells expressing MMP-14: 49.1 ± 3.6%
  PHF cells expressing SPARC: 48.1 ± 1.3%
  PHF cells expressing TGF-α: 42.4 ± 1.2%
  PHF cells expressing TGF-β1: 33.7 ± 1.3%
  PHF cells expressing TGF-β2: 42.6 ± 1.1%
  PHF cells expressing TGF-β3: 42.1 ± 1.5%
[2]
  PHF cells expressing MMP-11: 29.4 ± 3.8%
[3]
  cells expressing MMP-3: 44.5 ± 4.7%
  cells expressing MMP-7: 55.5 ± 3.8%
  cells expressing MMP-9: 53.3 ± 2.4%
  cells expressing MMP-11: 24.4 ± 3.8%
  cells expressing MMP-13: 46.1 ± 3.5%
  cells expressing MMP-14: 46.2 ± 3.5%
  cells expressing SPARC: 44.5 ± 1.4%
  cells expressing TGF-α: 42.4 ± 3.2%
  cells expressing TGF-β1: 42.5 ± 2.1%
  cells expressing TGF-β2: 44.5 ± 1.9%
  cells expressing TGF-β3: 43.5 ± 2.6%
[4]
  PHF cells expressing MMP-3: 46.4 ± 1.9%
  PHF cells expressing MMP-7: 53.1 ± 2.2%
  PHF cells expressing MMP-9: 55.7 ± 1.6%
  PHF cells expressing MMP-11: 26.4 ± 2.6%
  PHF cells expressing MMP-13: 46.5 ± 3.7%
  PHF cells expressing MMP-14: 51.3 ± 3.6%
  PHF cells expressing SPARC: 48 ± 1.6%
  PHF cells expressing TGF-α: 42.5 ± 1%
  PHF cells expressing TGF-β1: 34.3 ± 1.2%
  PHF cells expressing TGF-β2: 42.5 ± 1.5%
  PHF cells expressing TGF-β3: 44 ± 1.9%
[5]; [8]
  Percentage of fibroblast cells which expressed MMP-3: 47.4 ± 2.4%
  Percentage of fibroblast cells which expressed MMP-7: 55.1 ± 3.6%
  Percentage of fibroblast cells which expressed MMP-9: 54.7 ± 4.5%
  Percentage of fibroblast cells which expressed MMP-11: 28.4 ± 4.4%
  Percentage of fibroblast cells which expressed MMP-13: 43.4 ± 4.6%
  Percentage of fibroblast cells which expressed MMP-14: 48.6 ± 5.6%
  Percentage of fibroblast cells which expressed SPARC: 47 ± 2.7%
  Percentage of fibroblast cells which expressed TGFα: 45.5 ± 4.2%
  Percentage of fibroblast cells which expressed TGFβ1: 35.3 ± 2.3%
  Percentage of fibroblast cells which expressed TGFβ2: 44.5 ± 3.6%
  Percentage of fibroblast cells which expressed TGFβ3: 45 ± 3.9%
[5]; [9]
  Percentage of fibroblast cells which expressed MMP-3: 48.4 ± 5.1%
  Percentage of fibroblast cells which expressed MMP-7: 59.4 ± 5.7%
  Percentage of fibroblast cells which expressed MMP-9: 55.5 ± 4.5%
  Percentage of fibroblast cells which expressed MMP-11: 28.9 ± 4.7%
  Percentage of fibroblast cells which expressed MMP-13: 48.0 ± 5.6%
  Percentage of fibroblast cells which expressed MMP-14: 46.3 ± 3.6%
  Percentage of fibroblast cells which expressed SPARC: 56.2 ± 4.2%
  Percentage of fibroblast cells which expressed TGFα: 38.4 ± 2.3%
  Percentage of fibroblast cells which expressed TGFβ1: 35.4 ± 2.6%
  Percentage of fibroblast cells which expressed TGFβ2: 42.4 ± 4.2%
  Percentage of fibroblast cells which expressed TGFβ3: 52.1 ± 3.7%
[5]; [10]
  Percentage of fibroblast cells which expressed MMP-3: 51.5 ± 5.8%
  Percentage of fibroblast cells which expressed MMP-7: 54.4 ± 6.3%
  Percentage of fibroblast cells which expressed MMP-9: 56.5 ± 4.6%
  Percentage of fibroblast cells which expressed MMP-11: 38.6 ± 3.4%
  Percentage of fibroblast cells which expressed MMP-13: 46.3 ± 3.4%
  Percentage of fibroblast cells which expressed MMP-14: 47.6 ± 5.6%
  Percentage of fibroblast cells which expressed SPARC: 47.3 ± 4.2%
  Percentage of fibroblast cells which expressed TGFα: 37.5 ± 2.3%
  Percentage of fibroblast cells which expressed TGFβ1: 37.3 ± 3.3%
  Percentage of fibroblast cells which expressed TGFβ2: 52.3 ± 2.8%
  Percentage of fibroblast cells which expressed TGFβ3: 46.1 ± 4.3%
[5]; [11]
  Percentage of fibroblast cells which expressed MMP-3: 46.6 ± 5.7%
  Percentage of fibroblast cells which expressed MMP-7: 57.6 ± 4.1%
  Percentage of fibroblast cells which expressed MMP-9: 57.3 ± 4.5%
  Percentage of fibroblast cells which expressed MMP-11: 29.4 ± 3.1%
  Percentage of fibroblast cells which expressed MMP-13: 47.5 ± 4.3%
  Percentage of fibroblast cells which expressed MMP-14: 47.2 ± 3.4%
  Percentage of fibroblast cells which expressed SPARC: 46.3 ± 3.2%
  Percentage of fibroblast cells which expressed TGFα: 49.3 ± 3.3%
  Percentage of fibroblast cells which expressed TGFβ1: 45.6 ± 4.2%
  Percentage of fibroblast cells which expressed TGFβ2: 52.3 ± 3.2%
  Percentage of fibroblast cells which expressed TGFβ3: 47.4 ± 3.5%
[5]; [12]
  Percentage of fibroblast cells which expressed MMP-3: 47.5 ± 6.1%
  Percentage of fibroblast cells which expressed MMP-7: 56.6 ± 5.1%
  Percentage of fibroblast cells which expressed MMP-9: 54.1 ± 5.2%
  Percentage of fibroblast cells which expressed MMP-11: 27.1 ± 6.2%
  Percentage of fibroblast cells which expressed MMP-13: 57.2 ± 4.7%
  Percentage of fibroblast cells which expressed MMP-14: 46.2 ± 5.1%
  Percentage of fibroblast cells which expressed SPARC: 43.7 ± 4.5%
  Percentage of fibroblast cells which expressed TGFα: 44.2 ± 4.5%
  Percentage of fibroblast cells which expressed TGFβ2: 43.6 ± 7.4%
  Percentage of fibroblast cells which expressed TGFβ3: 45.4 ± 5.6%
[6]
  PHF cells expressing MMP-3: 42.6 ± 1.8%
  PHF cells expressing MMP-7: 57.5 ± 5.8%
  PHF cells expressing MMP-9: 57.3 ± 6.4%
  PHF cells expressing MMP-11: 36.4 ± 6.8%
  PHF cells expressing MMP-13: 45.4 ± 3.7%
  PHF cells expressing MMP-14: 51.6 ± 3.5%
  PHF cells expressing SPARC: 46.9 ± 1.6%
  PHF cells expressing TGF-α: 33.4 ± 1.1%
  PHF cells expressing TGF-β1: 34.5 ± 1.1%
  PHF cells expressing TGF-β2: 45.6 ± 1.1%
  PHF cells expressing TGF-β3: 44.5 ± 3.1%
[7]
  PHF cells expressing MMP-3: 43.4 ± 1.7%
  PHF cells expressing MMP-7: 56.1 ± 2.8%
  PHF cells expressing MMP-9: 52.3 ± 1.4%
  PHF cells expressing MMP-11: 27.4 ± 2.8%
  PHF cells expressing MMP-13: 45 ± 3.5%
  PHF cells expressing MMP-14: 49.2 ± 4.5%
  PHF cells expressing SPARC: 47 ± 1.2%
  PHF cells expressing TGF-α: 32.4 ± 1.1%
  PHF cells expressing TGF-β1: 33.5 ± 1.1%
  PHF cells expressing TGF-β2: 40.5 ± 1.1%
  PHF cells expressing TGF-β3: 41 ± 1.56%

Reference: patent US20180071317A1, “USE OF AGENTS THAT ALTER THE PERITUMORAL ENVIRONMENT FOR THE TREATMENT OF CANCER” (SERVICIO ANDALUZ DE SALUD, priority 2011, published 2018)
